From ChEMBL document CHEMBL1201862, “PubChem BioAssay data set” (2004)
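96-well plates; 48 h exposure; 5 concentrations. Endpoints by linear interpolation between flanking doses. Not reached: highest tested concentration assigned. GI50 = concentration required for 50% inhibition of growth.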 The source made the active and inactive calls. No stated cut-off is given here; in the data, active = GI50 up to about 1.1 µM and inactive = higher.

Tests used:
Test in all cases: NCI tumour cell line growth inhibition, 48 h
UACC-62 = system: UACC-62
U-251 = system: U-251
NCI-H522 = system: NCI-H522
SNB-75 = system: SNB-75
SR = system: SR
A498 = system: A498
OVCAR-4 = system: OVCAR-4
SF-539 = system: SF-539
SN12C = system: SN12C
TK-10 = system: TK-10
SK-OV-3 = system: SK-OV-3
Malme-3M = system: Malme-3M
CAKI-1 = system: CAKI-1
HCT-116 = system: HCT-116
HCT-15 = system: HCT-15
HOP-92 = system: HOP-92
SNB-19 = system: SNB-19
DU-145 = system: DU-145
SF-268 = system: SF-268
SF-295 = system: SF-295

Row | SMILES | GI50 (UACC-62) | GI50 (U-251) | GI50 (NCI-H522) | GI50 (SNB-75) | GI50 (SR) | GI50 (A498) | GI50 (OVCAR-4) | GI50 (SF-539) | GI50 (SN12C) | GI50 (TK-10) | GI50 (SK-OV-3) | GI50 (Malme-3M) | GI50 (CAKI-1) | GI50 (HCT-116) | GI50 (HCT-15) | GI50 (HOP-92) | GI50 (SNB-19) | GI50 (DU-145) | GI50 (SF-268) | GI50 (SF-295)
1 | Cc1cc(S(=O)(=O)Nc2n[nH]c(-c3ccc(Cl)cn3)n2)c(S)cc1Cl | 48.6 µM (inactive) | 39 µM (inactive) | 46.1 µM (inactive) | 80.9 µM (inactive) | 47.8 µM (inactive) | 87.3 µM (inactive) | 53.8 µM (inactive) | 44.1 µM (inactive) | > 100 µM (inactive) | > 100 µM (inactive) | 88.3 µM (inactive) | > 100 µM (inactive) | 44 µM (inactive) | 38.6 µM (inactive) | 70.1 µM | 9.04 µM (inactive) | 30.1 µM (inactive) | > 100 µM (inactive) | 54.7 µM (inactive) | 
2 | C/C(=N\Nc1nc2ccccc2n1C)c1ccc2ccccc2n1 | 2.32 µM (inactive) | 2 µM (inactive) | 0.416 µM (active) | 7.24 µM (inactive) | 0.51 µM (active) | 3.69 µM (inactive) | 0.19 µM (active) | 4.53 µM (inactive) | 1.82 µM (inactive) | 2.53 µM (inactive) | 12 µM (inactive) | 1.59 µM (inactive) | 0.611 µM (active) | 0.791 µM (active) |  | 2.48 µM (inactive) | 4.66 µM (inactive) | 3.86 µM (inactive) | 2.87 µM (inactive) | 2.21 µM (inactive)
3 | CSC1=NC(C(N)=O)C(N)N1C (stereo not given) | > 100 µM (inactive) | > 100 µM (inactive) | > 100 µM (inactive) |  | > 100 µM (inactive) | > 100 µM (inactive) | > 100 µM (inactive) | > 100 µM (inactive) | > 100 µM (inactive) | > 100 µM (inactive) | > 100 µM (inactive) | > 100 µM (inactive) | > 100 µM (inactive) | > 100 µM (inactive) | > 100 µM | > 100 µM (inactive) | > 100 µM (inactive) | > 100 µM (inactive) | > 100 µM (inactive) | > 100 µM (inactive)
4 | O=C(COc1ccc(Cl)c(Cl)c1)Nc1ccc[n+](Cc2ccc(S(=O)(=O)F)c(Cl)c2)c1 | > 100 µM (inactive) | > 100 µM (inactive) | > 100 µM (inactive) | > 100 µM (inactive) | 40.6 µM (inactive) | > 100 µM (inactive) | > 100 µM (inactive) | > 100 µM (inactive) | 98.4 µM (inactive) | > 100 µM (inactive) | > 100 µM (inactive) | 51.2 µM (inactive) | > 100 µM (inactive) | > 100 µM (inactive) | > 100 µM | > 100 µM (inactive) | > 100 µM (inactive) | > 100 µM (inactive) | > 100 µM (inactive) | > 100 µM (inactive)
5 | O=C(NNS(=O)(=O)c1ccccc1)c1csc(NC(=S)NC2CCCCC2)n1 | 23.7 µM (inactive) | 33.5 µM (inactive) | 26.2 µM (inactive) | 32.8 µM (inactive) | 36.9 µM (inactive) | 80.5 µM (inactive) | 34.6 µM (inactive) | 37.5 µM (inactive) | 20.8 µM (inactive) | 35.6 µM (inactive) | 42.2 µM (inactive) | 35.4 µM (inactive) | 28.4 µM (inactive) | 18.1 µM (inactive) | 41.6 µM | 55.2 µM (inactive) |  | 27.2 µM (inactive) | 22 µM (inactive) | 32.1 µM (inactive)
6 | O=C1C(=C(C(=O)c2ccccc2)C(=O)c2ccccc2)OC(c2ccccc2)=C1C(=O)c1ccccc1 | 4.33 µM (inactive) | 4.46 µM (inactive) | 1.22 µM (inactive) |  | 2.28 µM (inactive) | 15.6 µM (inactive) | 2.79 µM (inactive) | 5.78 µM (inactive) | 3.29 µM (inactive) | 9.35 µM (inactive) | 6.93 µM (inactive) | 12.6 µM (inactive) | 0.597 µM (active) | 4.44 µM (inactive) | 3.36 µM | 7.19 µM (inactive) | 10.2 µM (inactive) | 9.06 µM (inactive) | 3.8 µM (inactive) | 4.79 µM (inactive)
7 | CCCC(CC)c1c(O)c(O)c(C(CC)CCC)c(C(CC)CCC)c1C(CC)CCC (stereo not given) | > 10 µM (inactive) | > 10 µM (inactive) | > 10 µM (inactive) |  | > 10 µM (inactive) | > 10 µM (inactive) | > 10 µM (inactive) | > 10 µM (inactive) | > 10 µM (inactive) | > 10 µM (inactive) | > 10 µM (inactive) | > 10 µM (inactive) | > 10 µM (inactive) | > 10 µM (inactive) | > 10 µM | > 10 µM (inactive) | > 10 µM (inactive) | > 10 µM (inactive) | > 10 µM (inactive) | > 10 µM (inactive)
8 | Cc1cn(C2OC(CO[Si](C)(C)C(C)(C)C)C(N(C)O[Si](C)(C)C(C)(C)C)C2[Se]c2ccccc2)c(=O)[nH]c1=O (stereo not given) | 8.75 µM (inactive) | 3 µM (inactive) | 3.25 µM (inactive) | 4.79 µM (inactive) | 9.89 µM (inactive) | 14.9 µM (inactive) | 2.87 µM (inactive) |  | 5.65 µM (inactive) | 5.24 µM (inactive) | 17.4 µM (inactive) | 11.6 µM (inactive) |  | 3.56 µM (inactive) | 4.59 µM | 1.9 µM (inactive) | 5.82 µM (inactive) | 8.93 µM (inactive) | 2.75 µM (inactive) | 4.15 µM (inactive)
9 | CC(=O)O[C@@H]1C=C(C)[C@H](CBr)O[C@@]2(C)CC[C@H](Br)C(C)(C)[C@H]12 | > 100 µM (inactive) | > 100 µM (inactive) | 38.2 µM (inactive) | > 100 µM (inactive) | 41.2 µM (inactive) | > 100 µM (inactive) | > 100 µM (inactive) | > 100 µM (inactive) | > 100 µM (inactive) | > 100 µM (inactive) | > 100 µM (inactive) |  | > 100 µM (inactive) | > 100 µM (inactive) | > 100 µM | > 100 µM (inactive) | > 100 µM (inactive) | > 100 µM (inactive) | > 100 µM (inactive) | > 100 µM (inactive)
10 | COC(=O)/C(C#N)=C(\Nc1ccccc1)N1CCOCC1 |  | > 100 µM (inactive) | > 100 µM (inactive) | > 100 µM (inactive) | > 100 µM (inactive) | > 100 µM (inactive) | > 100 µM (inactive) | > 100 µM (inactive) | > 100 µM (inactive) | > 100 µM (inactive) | > 100 µM (inactive) | > 100 µM (inactive) | > 100 µM (inactive) | > 100 µM (inactive) | > 100 µM | > 100 µM (inactive) | > 100 µM (inactive) | > 100 µM (inactive) | > 100 µM (inactive) | > 100 µM (inactive)
11 | CCCCc1ccc2[n+](c1)C(C(=O)OCC)=PC2 (stereo not given) | > 100 µM (inactive) | 71.4 µM (inactive) | 54.2 µM (inactive) | 44.7 µM (inactive) | 32.7 µM (inactive) | > 100 µM (inactive) | > 100 µM (inactive) | > 100 µM (inactive) | > 100 µM (inactive) | > 100 µM (inactive) | > 100 µM (inactive) | > 100 µM (inactive) | > 100 µM (inactive) | > 100 µM (inactive) | 39.6 µM | > 100 µM (inactive) |  | > 100 µM (inactive) | > 100 µM (inactive) | > 100 µM (inactive)
12 | CCCCC1Cc2ccccc2-c2nc3ccccc3n21 (stereo not given) |  | 16.4 µM (inactive) | 13 µM (inactive) |  | 5.57 µM (inactive) | 16.7 µM (inactive) | 12.9 µM (inactive) | 19.6 µM (inactive) |  | 17.4 µM (inactive) | 20.5 µM (inactive) |  | 15.5 µM (inactive) | 12.6 µM (inactive) | 12.6 µM | 16.4 µM (inactive) |  | 18.4 µM (inactive) | 17.3 µM (inactive) | 15 µM (inactive)
13 | N#Cc1c(N)oc(-c2ccc([N+](=O)[O-])cc2)c1C#N | 39.5 µM (inactive) | 39.4 µM (inactive) | 21.4 µM (inactive) | 17.7 µM (inactive) | 54.2 µM (inactive) | 22.1 µM (inactive) |  | 19.8 µM (inactive) | 24.2 µM (inactive) | 28.4 µM (inactive) | 45.2 µM (inactive) | 26.7 µM (inactive) | 24.3 µM (inactive) | 29.2 µM (inactive) | 23.4 µM | 24.1 µM (inactive) | 27.5 µM (inactive) | 23.6 µM (inactive) | 19.5 µM (inactive) | 19.2 µM (inactive)
14 | CCOP(=O)(CN1CCNCCNCC1)OCC | > 100 µM (inactive) | > 100 µM (inactive) | > 100 µM (inactive) | 26.6 µM (inactive) | > 100 µM (inactive) | > 100 µM (inactive) | > 100 µM (inactive) | > 100 µM (inactive) | > 100 µM (inactive) | > 100 µM (inactive) | > 100 µM (inactive) |  | > 100 µM (inactive) | > 100 µM (inactive) | > 100 µM | > 100 µM (inactive) | > 100 µM (inactive) | > 100 µM (inactive) |  | > 100 µM (inactive)
15 | O=C(O)c1cc2ccccc2oc1=O [COUMARIN-3-CARBOXYLIC ACID] | > 100 µM (inactive) | > 100 µM (inactive) | > 100 µM (inactive) | > 100 µM (inactive) | > 100 µM (inactive) | > 100 µM (inactive) | > 100 µM (inactive) | > 100 µM (inactive) | > 100 µM (inactive) | > 100 µM (inactive) |  | > 100 µM (inactive) | > 100 µM (inactive) | > 100 µM (inactive) | > 100 µM | > 100 µM (inactive) | > 100 µM (inactive) | > 100 µM (inactive) | > 100 µM (inactive) | > 100 µM (inactive)
